Structures can show the parent of a compound that is named as a salt. Where two headings read alike, the source gives them in different places. Where a SMILES comes first, the peptide text is derived from it.
Target: T1, LmjIPCS (inositol phosphorylceramide synthase from L. major) (Leishmania major, UniProt E9AFX2)
T1 sequence (E9AFX2 1-338): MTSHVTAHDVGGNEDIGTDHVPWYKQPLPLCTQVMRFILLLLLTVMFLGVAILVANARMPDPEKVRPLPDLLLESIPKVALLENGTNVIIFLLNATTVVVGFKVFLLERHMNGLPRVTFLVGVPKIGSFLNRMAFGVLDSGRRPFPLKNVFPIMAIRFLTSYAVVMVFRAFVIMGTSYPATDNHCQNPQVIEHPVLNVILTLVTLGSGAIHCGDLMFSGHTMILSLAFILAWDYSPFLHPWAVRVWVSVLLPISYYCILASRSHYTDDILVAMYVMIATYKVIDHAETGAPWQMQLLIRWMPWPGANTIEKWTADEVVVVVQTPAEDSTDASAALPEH
Test: biochemical
Assay type: biochemical
Design: inhibition: dose or concentration left out as unconfirmed
Details: for inhibition at 20000 µM: read-out: 20mM inhibition LmjIPCS; for inhibition: read-out: inhibition LmjIPCS

[1] = NINDS set screen, single concentration printed as 20mM
[2] = screening of NINDS set, sheet Screen 1

`C#C[C@]1(OC(C)=O)CC[C@H]2[C@@H]3CCC4=CC(=O)CC[C@@H]4[C@H]3CC[C@@]21C` [NORETHINDRONE ACETATE] showed an inhibition at 20000 µM of 30%.
`C#C[C@]1(O)CC[C@H]2[C@@H]3CCC4=C(CCC(=O)C4)[C@H]3CC[C@@]21C` [NORETHYNODREL] showed an inhibition at 20000 µM of 21%.
`CCn1cc(C(=O)O)c(=O)c2cc(F)c(N3CCNCC3)cc21` [NORFLOXACIN] showed an inhibition of 17%.
Work on `c1ccc2c(c1)[nH]c1cnccc12` [NORHARMAN] yielded an inhibition at 20000 µM of 17%.
`COc1ccc2c(c1OC)C(=O)O[C@@H]2[C@H]1c2c(cc3c(c2OC)OCO3)CCN1C` [NOSCAPINE] showed an inhibition of 19%.
`CO[C@@H]1[C@@H](OC(N)=O)[C@@H](O)[C@H](Oc2ccc3c(O)c(NC(=O)c4ccc(O)c(CC=C(C)C)c4)c(=O)oc3c2C)OC1(C)C` [NOVOBIOCIN] gave an inhibition at 20000 µM of 16%.
`CC(CCc1ccccc1)NC(C)C(O)c1ccc(O)cc1` (stereo not drawn) [NYLIDRIN HYDROCHLORIDE] was tested, and the “20mM inhibition LmjIPCS” value [1] was 54%.
`C[C@@H]1[C@H](O)[C@@H](C)/C=C/C=C/CC/C=C/C=C/C=C/C=C/C(O[C@H]2O[C@H](C)[C@@H](O)[C@H](N)[C@@H]2O)CC2O[C@](O)(CC(O)C(O)CCC(O)CC(O)CC(O)CC(=O)O[C@H]1C)CC(O)C2C(=O)O` (stereo partly drawn) [NYSTATIN] was tested, and the “20mM inhibition LmjIPCS” value was 32%.
For `CC(=O)O.CNC(=N)NCCC[C@H](N)C(=O)O` [Ng-METHYL-L-ARGININE ACETATE], the “20mM inhibition LmjIPCS” value was 0.168%.
Work on `NCC(O)c1ccc(O)cc1` (stereo not drawn) [OCTOPAMINE HYDROCHLORIDE] yielded an inhibition (NINDS set screen) of 33%.
`CC1COc2c(N3CCN(C)CC3)c(F)cc3c(=O)c(C(=O)O)cn1c23` (stereo not drawn) [OFLOXACIN] gave an inhibition of 5%.
Compound `CO[C@H]1C[C@H](O[C@H]2[C@H](C)[C@@H](O[C@@H]3O[C@H](C)C[C@H](N(C)C)[C@H]3O)[C@@H](C)C[C@@]3(CO3)C(=O)[C@H](C)[C@@H](O)[C@@H](C)[C@@H](C)OC(=O)[C@@H]2C)O[C@@H](C)[C@@H]1O` [OLEANDOMYCIN] has an inhibition at 20000 µM of 1.17%.
With `CCCc1nc(C(C)(C)O)c(C(=O)OCc2oc(=O)oc2C)n1Cc1ccc(-c2ccccc2-c2nnn[nH]2)cc1` [OLMESARTAN MEDOXOMIL] the inhibition at 20000 µM was 21%.
For `CCCCCCCCCCC[C@@H](C[C@@H]1OC(=O)[C@H]1CCCCCC)OC(=O)[C@H](CC(C)C)NC=O` [ORLISTAT], the “20mM inhibition LmjIPCS” value was 66%.
Compound `C[C@@H]1O[C@@H](O[C@H]2C[C@@H](O)[C@]3(CO)[C@H]4[C@H](O)C[C@]5(C)[C@@H](C6=CC(=O)OC6)CC[C@]5(O)[C@@H]4CC[C@]3(O)C2)[C@H](O)[C@H](O)[C@H]1O` [OUABAIN] has an inhibition at 20000 µM of 1.15%.
With `Cc1onc(-c2ccccc2)c1C(=O)N[C@@H]1C(=O)N2[C@@H]1SC(C)(C)[C@@H]2C(=O)O` [OXACILLIN] the inhibition at 20000 µM was 16%.
`O=C(O)CCc1nc(-c2ccccc2)c(-c2ccccc2)o1` [OXAPROZIN] gave an inhibition of 5.6%.
With `NC(=O)N1c2ccccc2CC(=O)c2ccccc21` [OXCARBAZEPINE] the inhibition was -4%.
For `COC(=O)Nc1nc2ccc([S+]([O-])c3ccccc3)cc2[nH]1` (stereo not drawn) [OXFENDAZOLE], the inhibition [2] was 10%.
In the case of `NCCc1cc(O)c(O)cc1O` [OXIDOPAMINE], the “20mM inhibition LmjIPCS” value is reported as 65%.
Compound `O=C1CCCN1CC#CCN1CCCC1` [OXOTREMORINE] has an inhibition at 20000 µM of 4%.
For `COc1ccc(C(=O)c2ccccc2)c(O)c1` [OXYBENZONE], the “20mM inhibition LmjIPCS” value [1] was 34%.
For `CCCCC1C(=O)N(c2ccccc2)N(c2ccc(O)cc2)C1=O` (stereo not drawn) [OXYPHENBUTAZONE], the “20mM inhibition LmjIPCS” value was 45%.
`CN1CCCN=C1COC(=O)C(O)(c1ccccc1)C1CCCCC1` (stereo not drawn) [OXYPHENCYCLIMINE] was tested, and the “20mM inhibition LmjIPCS” value was 53%.
With `Oc1cccc2cccnc12` [OXYQUINOLINE] the inhibition at 20000 µM was 14%.
`CN(C)[C@@H]1C(O)=C(C(N)=O)C(=O)[C@@]2(O)C(O)=C3C(=O)c4c(O)cccc4[C@@](C)(O)[C@H]3[C@H](O)[C@@H]12` [OXYTETRACYCLINE] showed an inhibition at 20000 µM of 18%.
With `CC(=O)O[C@H]1C(=O)[C@@]2(C)[C@H]([C@H](OC(=O)c3ccccc3)[C@]3(O)C[C@H](OC(=O)[C@H](O)[C@@H](NC(=O)c4ccccc4)c4ccccc4)C(C)=C1C3(C)C)[C@]1(OC(C)=O)CO[C@@H]1C[C@@H]2O` [PACLITAXEL] the inhibition was 0.0705%.
Work on `COc1ccc(C(C)=O)c(O)c1` [PAEONOL] yielded an inhibition at 20000 µM of 9%.
In the case of `COc1cc2c(cc1OC)-c1cc3ccc(OC)c(OC)c3c[n+]1CC2` [PALMATINE CHLORIDE], the inhibition is reported as 16%.
With `COc1cc2c(cc1OC)-c1cc3ccc(OC)c(OC)c3c[n+]1CC2` [PALMATINE] the “20mM inhibition LmjIPCS” value was 8%.
`COc1ccc(Cc2nccc3cc(OC)c(OC)cc23)cc1OC` [PAPAVERINE] showed an inhibition at 20000 µM of 21%.
`Oc1ccc(Cl)cc1` [PARACHLOROPHENOL] was tested, and the inhibition at 20000 µM was 12%.
Work on `Cn1c(=O)[nH]c2ncn(C)c2c1=O` [PARAXANTHINE] yielded an inhibition (NINDS set screen) of -5.66%.
Compound `O=C1C=C2C(=CCOC2O)O1` (stereo not drawn) [PATULIN] has an inhibition at 20000 µM of 0.294%.
`CC(C)(S)[C@@H](N)C(=O)O` [PENICILLAMINE] was tested, and the inhibition at 20000 µM was 20%.
In the case of `CC1(C)S[C@@H]2[C@H](NC(=O)COc3ccccc3)C(=O)N2[C@H]1C(=O)O` [PENICILLIN V], the inhibition at 20000 µM is reported as 3.31%.
For `C1CCc2nnnn2CC1` [PENTETRAZOL], the inhibition at 20000 µM was 16%.
Work on `C[N+]1(CCCCC[N+]2(C)CCCC2)CCCC1` [PENTOLINIUM] yielded an inhibition [2] of 11%.
`CC(=O)CCCCn1c(=O)c2c(ncn2C)n(C)c1=O` [PENTOXIFYLLINE] showed an inhibition of 5.62%.
`C[C@@]12C[C@@]3(O)O[C@@H](O1)[C@]1(COC(=O)c4ccccc4)[C@H]3C[C@@]12O[C@@H]1O[C@H](CO)[C@@H](O)[C@H](O)[C@H]1O` [PEONIFLORIN] was tested, and the inhibition was 12%.
With `C1CCC(C(CC2CCCCN2)C2CCCCC2)CC1` (stereo not drawn) [PERHEXILINE] the inhibition was 12%.
With `N#Cc1ccc2c(c1)N(CCCN1CCC(O)CC1)c1ccccc1S2` [PERICIAZINE] the “20mM inhibition LmjIPCS” value [1] was 52%.
`C=C(C)[C@@H]1CC=C(C(=O)O)CC1` [PERILLIC ACID (-)] gave an inhibition at 20000 µM of 12%.
In the case of `C=C(C)[C@@H]1CC=C(CO)CC1` [PERILLYL ALCOHOL], the inhibition at 20000 µM is reported as 11%.
`CCC[C@H](N[C@@H](C)C(=O)N1[C@H](C(=O)O)C[C@@H]2CCCC[C@@H]21)C(=O)OCC` [PERINDOPRIL] gave an inhibition at 20000 µM of 2%.
`OCCN1CCN(CCCN2c3ccccc3Sc3ccc(Cl)cc32)CC1` [PERPHENAZINE] was tested, and the inhibition was 0.226%.
`CO[C@H]1[C@H](O)[C@H](O[C@H]2CC[C@@]3(C=O)[C@H](CC[C@@H]4[C@@H]3CC[C@]3(C)[C@@H](C5=CC(=O)OC5)CC[C@]43O)C2)O[C@@H](C)[C@@H]1O` [PERUVOSIDE] gave an inhibition at 20000 µM of 12%.
With `CCOc1ccc(NC(C)=O)cc1` [PHENACETIN] the “20mM inhibition LmjIPCS” value was 38%.
`Nc1ccc(/N=N/c2ccccc2)c(N)n1` [PHENAZOPYRIDINE] was tested, and the “20mM inhibition LmjIPCS” value [1] was 52%.
`NNCCc1ccccc1` [PHENELZINE] gave an inhibition at 20000 µM of 27%.
For `O=C(/C=C/c1ccc(O)c(O)c1)OCCc1ccccc1` [PHENETHYL CAFFEATE (CAPE)], the “20mM inhibition LmjIPCS” value was 39%.
`O=C1c2ccccc2C(=O)C1c1ccccc1` [PHENINDIONE] showed an inhibition (NINDS set screen) of 21%.
With `CN(C)CCC(c1ccccc1)c1ccccn1` (stereo not drawn) [PHENIRAMINE] the inhibition (NINDS set screen) was -1%.
In the case of `CC(C)=CC1C(C(=O)OCc2cccc(Oc3ccccc3)c2)C1(C)C` (stereo not drawn) [PHENOTHRIN], the “20mM inhibition LmjIPCS” value is reported as 39%.
`CC(COc1ccccc1)N(CCCl)Cc1ccccc1` (stereo not drawn) [PHENOXYBENZAMINE] was tested, and the inhibition at 20000 µM was 31%.
In the case of `N[C@@H](Cc1ccccc1)C(=O)N[C@@H](Cc1ccc(O)cc1)C(=O)O` [PHENYLALANYLTYROSINE] (H-Phe-Tyr-OH), the inhibition at 20000 µM is reported as 7.42%.
`O=C(O)CCCc1ccccc1` [PHENYLBUTYRATE] gave an inhibition at 20000 µM of 1.15%.
In the case of `CNC[C@H](O)c1cccc(O)c1` [PHENYLEPHRINE], the inhibition (NINDS set screen) is reported as 25%.
`O=C1NC(=O)C(c2ccccc2)(c2ccccc2)N1` [PHENYTOIN] gave an inhibition of 14%.
In the case of `O=C(CCc1ccc(O)cc1)c1c(O)cc(O)cc1O[C@@H]1O[C@H](CO)[C@@H](O)[C@H](O)[C@H]1O` [PHLORIDZIN], the inhibition (NINDS set screen) is reported as 15%.
For `COc1cc(O)c2c(c1)C(=O)c1cc(C)cc(O)c1C2=O` [PHYSCION], the inhibition was 18%.
With `CNC(=O)Oc1ccc2c(c1)[C@]1(C)CCN(C)[C@@H]1N2C` [PHYSOSTIGMINE] the inhibition at 20000 µM was 15%.
With `COc1cc([C@@H]2c3cc4c(cc3[C@H](O)[C@H]3COC(=O)[C@@H]23)OCO4)cc(OC)c1OC` [PICROPODOPHYLLOTOXIN] the inhibition at 20000 µM was 7.47%.
`C=C(C)[C@@H]1[C@H]2OC(=O)[C@@H]1[C@]1(O)C[C@H]3O[C@]34C(=O)O[C@H]2[C@]14C` [PICROTOXININ] showed an inhibition at 20000 µM of 13%.
`CC[C@@H]1C(=O)OC[C@@H]1Cc1cncn1C` [PILOCARPINE] was tested, and the inhibition (NINDS set screen) was -4.6%.
`COc1c(OC)c2occc2c2oc(=O)ccc12` [PIMPINELLIN] was tested, and the inhibition (NINDS set screen) was 18%.
With `CC(C)NCC(O)COc1cccc2[nH]ccc12` (stereo not drawn) [PINDOLOL] the inhibition at 20000 µM was 16%.
For `O=C1C[C@@H](c2ccccc2)Oc2cc(O)cc(O)c21` [PINOCEMBRIN], the “20mM inhibition LmjIPCS” value [1] was 35%.
`CCc1ccc(CCOc2ccc(CC3SC(=O)NC3=O)cc2)nc1` (stereo not drawn) [PIOGLITAZONE] showed an inhibition of 9%.
For `CCN1CCN(C(=O)N[C@@H](C(=O)N[C@@H]2C(=O)N3[C@@H]2SC(C)(C)[C@@H]3C(=O)O)c2ccccc2)C(=O)C1=O` [PIPERACILLIN], the “20mM inhibition LmjIPCS” value was 60%.
In the case of `C1CNCCN1` [PIPERAZINE], the inhibition at 20000 µM is reported as 5.42%.
For `CCN1CCCC(OC(=O)C(c2ccccc2)c2ccccc2)C1` (stereo not drawn) [PIPERIDOLATE], the “20mM inhibition LmjIPCS” value was 39%.
`O=C(/C=C/C=C/c1ccc2c(c1)OCO2)N1CCCCC1` [PIPERINE] was tested, and the inhibition at 20000 µM was 13%.
For `CCn1cc(C(=O)O)c(=O)c2cnc(N3CCCC3)nc21` [PIROMIDIC ACID], the inhibition was 8.53%.
With `CN1C(C(=O)Nc2ccccn2)=C(O)c2ccccc2S1(=O)=O` [PIROXICAM] the inhibition was 15%.

Reference: publication PMC7802075 (ACS Infectious Diseases, 2020)
